Here are results for 33 molecules from patent publication US8633182B2, “Indanyloxyphenylcyclopropanecarboxylic acids” (Boehringer Ingelheim International GmbH, priority 2012, dated 2014).

The target of the assay is human GPR40 receptor (Homo sapiens, UniProt O14842). The assay can be described thus: IP1 accumulation measurements using the IPOne assay system in 1321N1 cells stably expressing human GPR40 receptor. Format: cell-based. The conditions noted are these: IP1 accumulation (HTRF), 1321N1 cells stably expressing human GPR40, 1 hour stimulation at 37° C. The method, then:
IP1 accumulation measurements using the IPOne assay system—1321N1 cells stably expressing human GPR40 receptor (Euroscreen, Belgium) are seeded 24 h before the assay in black clear-bottom collagen-coated or white 384-well plates in culture medium containing 10% FCS, 1% Na-Pyruvate and 400 μg/mL G418. IP1 is assayed according to the Manufacturer's description (Cisbio Bioassays, France). In brief, the assay is started by substitution of the culture medium by stimulation buffer (Hepes 10 mM, CaCl2 1 mM, MgCl2 0.5 mM, KCl 4.2 mM, NaCl 146 mM and glucose 5.5 mM, pH 7.4) without LiCl or with […]. Cells are stimulated for 1 hour at 37° C., 5 or 10% CO2 by addition of the compounds that are diluted in stimulation buffer containing LiCl yielding a final LiCl concentration of 50 mM. Assays are stopped by adding HTRF-conjugates (IP1-d2 and Anti-IP1 cryptate Tb) and lysis buffer, provided by the manufacturer. After an incubation time of 1 hour at room temperature plates are measured using an EnVision™, Perkin Elmer. The obtained fluorescence ratios at […] are then used to calculate the pEC50 values using GraphPad Prism 5 (Graphpad Software Inc, USA) or Assay Explorer 3.3 Software (Accelrys, Inc.) by interpolation using an IP1 reference curve and subsequent sigmoidal curve fitting allowing for a variable hill slope.

Chain of human GPR40 receptor (O14842 whole entry): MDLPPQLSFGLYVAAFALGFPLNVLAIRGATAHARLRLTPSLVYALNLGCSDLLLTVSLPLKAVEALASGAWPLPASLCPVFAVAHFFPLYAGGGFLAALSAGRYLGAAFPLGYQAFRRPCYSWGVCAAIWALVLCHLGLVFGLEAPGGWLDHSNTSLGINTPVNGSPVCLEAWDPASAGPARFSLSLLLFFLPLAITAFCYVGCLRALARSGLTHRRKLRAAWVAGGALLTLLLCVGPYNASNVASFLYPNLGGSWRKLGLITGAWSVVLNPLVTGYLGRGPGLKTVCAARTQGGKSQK

As for `O=C(O)C1CC1c1ccc(O[C@@H]2CCc3c2cccc3C(F)(F)F)cc1` (stereo in doubt) [Example 2, 2-[4-((R)-4-Trifluoromethyl-indan-1-yloxy)-phenyl]-trans-cyclopropanecarboxylic acid], a half-maximal effect (EC50) was put at 15 nM. Turning to `O=C(O)C1CC1c1ccc(O[C@@H]2CCc3cc(C(F)(F)F)ccc32)cc1` (stereo in doubt) [Example 3, 2-[4-((R)-5-Trifluoromethyl-indan-1-yloxy)-phenyl]-trans-cyclopropanecarboxylic acid], the response was half-maximal at 36 nM (EC50). The result for `O=C(O)C1CC1c1ccc(O[C@@H]2CCc3c(OC(F)(F)F)cccc32)cc1` (stereo in doubt) [Example 4, 2-[4-((R)-4-Trifluoromethoxy-indan-1-yloxy)-phenyl]-trans-cyclopropanecarboxylic acid] reads 18 nM; that for `O=C(O)C1CC1c1ccc(O[C@@H]2CCc3c2cccc3C(F)(F)F)cc1F` (stereo in doubt) [Example 5, 2-[4-((R)-4-Trifluoromethyl-indan-1-yloxy)-2-fluorophenyl]-trans-cyclopropanecarboxylic acid], 85 nM; that for `O=C(O)C1CC1c1ccc(O[C@@H]2CCc3c(OC(F)(F)F)cccc32)cc1F` (stereo in doubt) [Example 6, 2-[4-((R)-4-Trifluoromethoxy-indan-1-yloxy)-2-fluorophenyl]-trans-cyclopropanecarboxylic acid], 98 nM. Turning to `COc1cc(O[C@@H]2CCc3c2cccc3C(F)(F)F)ccc1C1CC1C(=O)O` (stereo in doubt) [Example 7, 2-[4-((R)-4-Trifluoromethyl-indan-1-yloxy)-2-methoxyphenyl]-trans-cyclopropanecarboxylic acid], the EC50 (in general, the concentration at which the effect is half-maximal) is 531 nM. The result for `Cc1cccc(C)c1-c1ccc(F)c2c1CC[C@H]2Oc1ccc(C2CC2C(=O)O)cc1` (stereo in doubt) [Example 33, 2-{4-[(R)-4-(2,6-Dimethyl-phenyl)-7-fluoro-indan-1-yloxy]-phenyl}-trans-cyclopropanecarboxylic acid] reads 2 nM.

Molecule `COc1cc(O[C@@H]2CCc3c(OC(F)(F)F)cccc32)ccc1[C@@H]1C[C@H]1C(=O)O` [Example 8] came in with an EC50 of 407 nM. The result for `O=C(O)[C@@H]1C[C@H]1c1ccc(O[C@@H]2CCc3c2cccc3C(F)(F)F)cc1` [Example 9] reads 457 nM; that for `O=C(O)[C@H]1C[C@@H]1c1ccc(O[C@@H]2CCc3c2cccc3C(F)(F)F)cc1` [Example 10], 13 nM. For the molecule `Cc1cc(OCCCS(C)(=O)=O)cc(C)c1-c1ccc(F)c2c1CC[C@H]2Oc1ccc([C@H]2C[C@@H]2C(=O)O)cc1` [Example 11], the EC50 came out at 9 nM. With `Cc1cc(OCCCS(C)(=O)=O)cc(C)c1-c1ccc(F)c2c1CC[C@H]2Oc1ccc([C@@H]2C[C@H]2C(=O)O)cc1` [Example 12, (1R,2R)-2-(4-{(R)-7-Fluoro-4-[4-(3-methanesulfonyl-propoxy)-2,6-dimethyl-phenyl]-indan-1-yloxy}-phenyl)-cyclopropanecarboxylic acid], the EC50 was found to be 328 nM.

In the case of `Cc1cc(OCCCS(C)(=O)=O)cc(C)c1-c1ccc(F)c2c1CC[C@H]2Oc1ccc(C2CC2C(=O)O)cc1` (stereo partly drawn) [Example 13], the EC50 was found to be 13 nM. As for `Cc1cc(OCC(C)(C)S(C)(=O)=O)cc(C)c1-c1ccc(F)c2c1CC[C@H]2Oc1ccc([C@H]2C[C@@H]2C(=O)O)cc1` [Example 14, (1S,2S)-2-(4-{(R)-7-Fluoro-4-[4-(2-methanesulfonyl-2-methyl-propoxy)-2,6-dimethyl-phenyl]-indan-1-yloxy}-phenyl)-cyclopropanecarboxylic acid], the EC50 was found to be 8 nM. The molecule `Cc1cc(C(=O)NCC(C)(C)O)cc(C)c1-c1ccc(F)c2c1CC[C@H]2Oc1ccc([C@H]2C[C@@H]2C(=O)O)cc1` [Example 15, (1S,2S)-2-(4-{(R)-7-Fluoro-4-[4-(2-hydroxy-2-methyl-propylcarbamoyl)-2,6-dimethyl-phenyl]-indan-1-yloxy}-phenyl)-cyclopropanecarboxylic acid] yielded an EC50 of 12 nM. In the case of `O=C(O)[C@H]1C[C@@H]1c1ccc(O[C@@H]2CCc3cccc(F)c32)cc1` [Example 16, (1S,2S)-2-[4-((R)-7-Fluoro-indan-1-yloxy)-phenyl]-cyclopropanecarboxylic acid], a half-maximal response (EC50) required 304 nM. The result for `Cc1cc(OCCC(C)(C)O)cc(C)c1-c1ccc(F)c2c1CC[C@H]2Oc1ccc([C@H]2C[C@@H]2C(=O)O)cc1` [Example 17, (1S,2S)-2-(4-{(R)-7-Fluoro-4-[4-(3-hydroxy-3-methyl-butoxy)-2,6-dimethyl-phenyl]-indan-1-yloxy}-phenyl)-cyclopropanecarboxylic acid] reads 4 nM; that for `Cc1cc(OCC2(S(C)(=O)=O)CC2)cc(C)c1-c1ccc(F)c2c1CC[C@H]2Oc1ccc([C@H]2C[C@@H]2C(=O)O)cc1` [Example 18, (1S,2S)-2-(4-{(R)-7-Fluoro-4-[4-(1-methanesulfonyl-cyclopropylmethoxy)-2,6-dimethyl-phenyl]-indan-1-yloxy}-phenyl)-cyclopropane-carboxylic acid], 5 nM. Consider `CNC(=O)c1cc(C)c(-c2ccc(F)c3c2CC[C@H]3Oc2ccc([C@H]3C[C@@H]3C(=O)O)cc2)c(C)c1` [Example 19, (1S,2S)-2-{4-[(R)-4-(2,6-Dimethyl-4-methylcarbamoyl-phenyl)-7-fluoro-indan-1-yloxy]-phenyl}-cyclopropane-carboxylic acid], for which the EC50 was 13 nM. Molecule `Cc1cc(OCC2CN(S(C)(=O)=O)C2)cc(C)c1-c1ccc(F)c2c1CC[C@H]2Oc1ccc([C@H]2C[C@@H]2C(=O)O)cc1` [Example 20, (1S,2S)-2-(4-{(R)-7-Fluoro-4-[4-(1-methanesulfonyl-azetidin-3-ylmethoxy)-2,6-dimethyl-phenyl]-indan-1-yloxy}-phenyl)-cyclopropanecarboxylic acid] had a concentration for a half-maximal effect (EC50) of 10 nM. The result for `Cc1cc(OCC2CCS(=O)(=O)CC2)cc(C)c1-c1ccc(F)c2c1CC[C@H]2Oc1ccc([C@H]2C[C@@H]2C(=O)O)cc1` [Example 21] reads 7 nM; that for `Cc1cc(OCCN2CCCS2(=O)=O)cc(C)c1-c1ccc(F)c2c1CC[C@H]2Oc1ccc([C@H]2C[C@@H]2C(=O)O)cc1` [Example 22], 12 nM; that for `Cc1cc(O[C@@H]2CCN(S(C)(=O)=O)C2)cc(C)c1-c1ccc(F)c2c1CC[C@H]2Oc1ccc([C@H]2C[C@@H]2C(=O)O)cc1` [Example 23], 13 nM. `Cc1cc(O[C@H]2CCN(S(C)(=O)=O)C2)cc(C)c1-c1ccc(F)c2c1CC[C@H]2Oc1ccc([C@H]2C[C@@H]2C(=O)O)cc1` [Example 24]: the response was half-maximal at 18 nM (EC50).

In the case of `Cc1cc(O[C@@H]2CCOC2)cc(C)c1-c1ccc(F)c2c1CC[C@H]2Oc1ccc([C@H]2C[C@@H]2C(=O)O)cc1` [Example 25], the midpoint of the response, the EC50, lay at 13 nM. Turning to `Cc1cc(OC(C)(C)CO)cc(C)c1-c1ccc(F)c2c1CC[C@H]2Oc1ccc([C@H]2C[C@@H]2C(=O)O)cc1` [Example 26], the EC50 was 8 nM. Take `Cc1cc(OCC(C)(C)O)cc(C)c1-c1ccc(F)c2c1CC[C@H]2Oc1ccc([C@H]2C[C@@H]2C(=O)O)cc1` [Example 27, (1S,2S)-2-(4-{(R)-7-Fluoro-4-[4-(2-hydroxy-2-methyl-propoxy)-2,6-dimethyl-phenyl]-indan-1-yloxy}-phenyl)-cyclopropanecarboxylic acid]: the midpoint of the response, the EC50, lay at 8 nM. For the molecule `Cc1cc(OC[C@H](C)CS(C)(=O)=O)cc(C)c1-c1ccc(F)c2c1CC[C@H]2Oc1ccc([C@H]2C[C@@H]2C(=O)O)cc1` [Example 28, (1S,2S)-2-(4-{(R)-7-Fluoro-4-[4-((S)-3-methanesulfonyl-2-methyl-propoxy)-2,6-dimethyl-phenyl]-indan-1-yloxy}-phenyl)-cyclopropanecarboxylic acid], the EC50 is 6 nM.

`Cc1cc(OC[C@@H](C)CS(C)(=O)=O)cc(C)c1-c1ccc(F)c2c1CC[C@H]2Oc1ccc([C@H]2C[C@@H]2C(=O)O)cc1` [Example 29, (1S,2S)-2-(4-{(R)-7-Fluoro-4-[4-((R)-3-methanesulfonyl-2-methyl-propoxy)-2,6-dimethyl-phenyl]-indan-1-yloxy}-phenyl)-cyclopropanecarboxylic acid] showed an EC50 of 7 nM. The result for `Cc1cc(OC(C)(C)C(N)=O)cc(C)c1-c1ccc(F)c2c1CC[C@H]2Oc1ccc([C@H]2C[C@@H]2C(=O)O)cc1` [Example 30, (1S,2S)-2-(4-{(R)-4-[4-(1-Carbamoyl-1-methyl-ethoxy)-2,6-dimethyl-phenyl]-7-fluoro-indan-1-yloxy}-phenyl)-cyclopropanecarboxylic acid] reads 18 nM. For the molecule `Cc1cc(OCCCCS(C)(=O)=O)cc(C)c1-c1ccc(F)c2c1CC[C@H]2Oc1ccc([C@H]2C[C@@H]2C(=O)O)cc1` [Example 31, (1S,2S)-2-(4-{(R)-7-Fluoro-4-[4-(4-methanesulfonyl-butoxy)-2,6-dimethyl-phenyl]-indan-1-yloxy}-phenyl)-cyclopropanecarboxylic acid], the midpoint of the response, the EC50, lay at 6 nM.

On to `Cc1cc(OCC2(CO)CC2)cc(C)c1-c1ccc(F)c2c1CC[C@H]2Oc1ccc([C@H]2C[C@@H]2C(=O)O)cc1` [Example 32], for which the EC50 turned out to be 4 nM. The result for `Cc1cc(OCCC(C)(C)O)cc(C)c1-c1c(C#N)ccc2c1CC[C@H]2Oc1ccc([C@H]2C[C@@H]2C(=O)O)cc1` [Example 34] reads 8 nM.
